In PubChem BioAssay (NCI):
Values joined by “and” are separate entries in the source; they are usually repeats but may differ in a detail not shown here. Equal entries are not always repeated.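 Following 48 hours of exposure in 96-well plates, responses at five concentrations were used to interpolate endpoints linearly. Abbreviation: GI50, concentration required for 50% inhibition of growth. TGI is the concentration that stops growth completely.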

Legend:
Assay in all cases: NCI tumour cell line growth inhibition, 48 h
CCRF-CEM leukemia = test system: CCRF-CEM leukemia
SNB-75 CNS = test system: SNB-75 CNS
U251 CNS = test system: U251 CNS
SK-MEL-2 melanoma = test system: SK-MEL-2 melanoma
HCC-2998 colon = test system: HCC-2998 colon
NCI-H23 lung = test system: NCI-H23 lung
K-562 leukemia = test system: K-562 leukemia
HOP-92 NSCLC = test system: HOP-92 NSCLC
HOP-62 NSCLC = test system: HOP-62 NSCLC
SR leukemia = test system: SR leukemia

Row | SMILES | TGI (CCRF-CEM leukemia) [µM] | TGI (SNB-75 CNS) [µM] | TGI (U251 CNS) [µM] | TGI (SK-MEL-2 melanoma) [µM] | TGI (HCC-2998 colon) [µM] | TGI (NCI-H23 lung) [µM] | TGI (K-562 leukemia) [µM] | TGI (HOP-92 NSCLC) [µM] | TGI (HOP-62 NSCLC) | TGI (SR leukemia) [µM] | GI50 (CCRF-CEM leukemia) [µM] | GI50 (SR leukemia) [µM] | GI50 (SNB-75 CNS) [µM] | GI50 (U251 CNS) [µM] | GI50 (SK-MEL-2 melanoma) [µM] | GI50 (HCC-2998 colon) [µM] | GI50 (NCI-H23 lung) [µM] | GI50 (HOP-92 NSCLC) [µM] | GI50 (HOP-62 NSCLC) [µM] | GI50 (K-562 leukemia) [µM]
1 | CC(O)/C=C/C(CCC(C)CO)C(C)C (configuration not stated) | > 100 | > 100 | > 100 | > 100 | > 100 | > 100 | > 100 | > 100 | > 100 µM |  |  |  |  |  |  |  |  |  |  | 
2 | O=C1NC(=S)NC(=O)C1=Cc1cc2c(cc1[N+](=O)[O-])OCO2 | > 100 | > 100 | > 100 | > 100 | > 100 |  | > 100 |  | > 100 µM | > 100 |  |  |  |  |  |  |  |  |  | 
3 | CCCCCCCCCCC/C(=N/O)c1ccc(O)c2ncccc12 |  | 13.2 | 23.5 | 5.86 | 23.1 | 57.4 |  | 5.47 | 17.5 µM |  |  |  |  |  |  |  |  |  |  | 
4 | O=C1c2cccc3cc([N+](=O)[O-])cc(c23)C(=O)N1CCNCCNCCNCCN1C(=O)c2cccc3cc([N+](=O)[O-])cc(c23)C1=O | 0.635 | 0.133 | 0.0206 | 0.283 | 0.226 |  | 0.229 | 0.112 | 0.216 µM and 0.444 µM |  |  |  |  |  |  |  |  |  |  | 
5 | O=C1CCC(Cc2ccc(Cl)cc2Cl)C(=O)N1 (configuration not stated) | > 100 | > 100 | > 100 | > 100 |  | > 100 | > 100 | > 100 | > 100 µM | > 100 |  |  |  |  |  |  |  |  |  | 
6 | CC(C)NCCNC(=O)c1ccccc1Nc1c(Cl)cccc1Cl | 27.1 | 16.3 | 16.8 |  |  | 32 |  |  | 25.4 µM | 26.8 |  |  |  |  |  |  |  |  |  | 
7 | O=C(O)C(=Cc1ccnc2ccccc12)C(=O)O | > 100 | > 100 | > 100 | > 100 |  | > 100 | > 100 | > 100 | > 100 µM | > 100 |  |  |  |  |  |  |  |  |  | 
8 | O=Cc1c(-c2cc(O)ccc2O)nc2sccn12 | 7.21 | > 100 | 47 | 55.9 | 33.6 | 51.4 |  | 27.3 | 26.4 µM | 3.42 | 0.95 | 0.64 | 36.9 | 18.8 | 20.1 | 17.3 | 20.9 | 10.7 | 10.4 | 
9 | CCOc1ccc(N=Cc2cccc3cccnc23)cc1 | > 100 | > 100 | > 100 | > 100 | > 100 | > 100 | 82.3 | > 100 | > 100 µM |  |  |  |  |  |  |  |  |  |  | 
10 | C1CC[N-]CC1.C1CC[N-]CC1.C1CC[N-]CC1.C1CC[N-]CC1.[Cl][Rh][Cl] | 72.4 | 80.3 | 23.8 | 41.8 | 30.3 |  |  | 22.1 | > 100 µM | 42 | 3.46 | 4.75 | 6.69 | 4.72 | 12.7 | 8.17 |  | 4.39 | 4.41 | 
11 | Nc1ccccc1C#C/C=C\C#Cc1ccccc1C(F)(F)F | > 100 | 18.8 | 15.7 | > 100 |  | 5.17 | 3.74 | 48 | 18.7 µM | 0.691 | 17.7 | 0.247 | 0.0869 | 0.621 | 21.8 |  | 0.397 | 21.5 | 0.588 | 1.07
12 | O=C1C(Cl)C(c2cccc(O)c2)N1n1cnc2ccccc2c1=O (configuration not stated) |  | > 100 | > 100 | > 100 | > 100 | > 100 | > 100 |  | > 100 µM | > 100 |  |  |  |  |  |  |  |  |  | 
13 | O=S(=O)([O-])c1cccc2cccc(N=Cc3ccccc3[O-])c12.O=S(=O)([O-])c1cccc2cccc(N=Cc3ccccc3[O-])c12.[O]=[U]=[O] | > 100 | 57.9 | > 100 | > 100 |  | > 100 | > 100 | 89.6 | > 100 µM |  | 18.4 |  | 23.3 | 30.8 | > 100 |  | 51.5 | 30.1 | 42.6 | 35.5
14 | COC(=O)C1CC(C(=O)OC)c2nc3cc(C)ccc3nc21 (configuration not stated) | > 100 | > 100 | > 100 | > 100 | > 100 | > 100 | > 100 | > 100 | > 100 µM |  |  |  |  |  |  |  |  |  |  | 
15 | OC1(C(O)(c2ccc(-c3ccccc3)cc2)c2ccc(-c3ccccc3)cc2)CCCCC1 |  | > 100 | > 100 | > 100 | > 100 | > 100 | > 100 | > 100 | > 100 µM | > 100 |  |  |  |  |  |  |  |  |  | 
16 | OCCCCC#Cc1ccccc1C#Cc1ccccc1 |  | 42.1 | 23.8 | > 100 | 43.6 | 51.4 | > 100 | 22.6 | 30.6 µM |  |  |  | 16 | 11.5 | 40 | 16.8 | 19.8 | 9.55 | 16.3 | 22.1
17 | C/C(=N/S(=O)(=O)c1ccc(Cl)c(Cl)c1)OCC(C)(C)C | > 100 | > 100 | > 100 | > 100 |  | > 100 | > 100 | > 100 | > 100 µM |  |  |  |  |  |  |  |  |  |  | 
18 | CC(CN(CP(=O)([O-])[O-])CP(=O)([O-])[O-])N(CP(=O)([O-])[O-])CP(=O)([O-])[O-].N.N.[Pt+2] (configuration not stated) | > 100 | > 100 | > 100 | > 100 | > 100 | > 100 | > 100 |  | > 100 µM |  | > 100 |  | > 100 | > 100 | > 100 | > 100 | > 100 |  | > 100 | > 100
19 | N#CC(NNC(=O)c1ccccc1O)c1ccc(O)cc1 (configuration not stated) | > 100 |  | > 100 | 78.5 |  | > 100 | > 100 | > 100 | > 100 µM | > 100 |  |  |  |  |  |  |  |  |  | 
